Test results: patent US20220370440A1 (Lead Discovery Center GmbH, priority 2018, published 2022)

Legend:
[1] = Metabolic stability in mouse liver microsomes without cofactor NADPH; type: in vitro ADME; conditions: for Stability in presence of mouse liver microsomes without cofactor NADPH [% remaining after 50 min]: 3 μM test compound, 37° C., LC-MS/MS
Text: There are two major groups of enzyme reactions catalyzed by drug metabolizing enzymes, the so called Phase I and Phase II reactions. The basic processes in phase I reactions are oxidation, reduction and/or hydrolysis mostly catalyzed by the cytochrome P450 (CYP) family of enzymes.
The following procedures describe the determination of the in vitro Phase I metabolic stability of test compounds using liver microsomes by measuring compound depletion over time. Test compound at the concentration of 3 μM was incubated with the liver microsomes from the mouse species and the experiment was performed without NADPH. The depletion of the test compounds was measured over time up to 50 minutes at 37° C. by LC-MS/MS. Different compounds were tested under these conditions for microsomal stability (see Table 5).

EGFR wt = EGFR wt (Homo sapiens, UniProt P00533); experiment: EGFR wt Lance assay; type: biochemical
Procedure: (§1) Inhibition is indicated as […] [nM] (“−”=not measured). Compounds having an activity designated as “A” provided an IC50≤100 nM; compounds having an activity designated as “B” provided an 100 nM<IC50≤500 nM; compounds having an activity designated as “C” provided an 500 nM<IC50≤1000 nM; compounds having an activity designated as “D” provided an 1000 nM<IC50≤100000 nM; and compounds having an activity designated as “E” provided an IC50>10000 nM.

[2] = molecular target: EGFR Exon 20 INSNPH Ba/F3 (Homo sapiens, UniProt P00533, DUP771-773, cells depend on it); experiment: EGFR Exon 20 INSNPH Ba/F3 CellTiter-Glo; type: cell-based; conditions: CellTiter-Glo, 72 h, read-out: EGFR Exon 20 INSNPH Ba/F3 CTG IC50
Outline: (§2)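 IC50 values come from dose–response fits of CellTiter-Glo luminescence in Ba/F3 cells treated with compound for 72 h at 37 °C, 5% CO2. Vehicle (DMSO) and 10 μM staurosporine wells set the assay window, with Z′ ≥0.5 required.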

EGFR T790ML858R = EGFR T790ML858R (Homo sapiens, UniProt P00533, L858R/T790M); experiment: EGFR T790ML858R Lance assay; type: biochemical
Procedure: as §1

HER2 INS YVMA = molecular target: T1, HER2 INS YVMA (Homo sapiens, UniProt P04626, INS775YVMA); experiment: Lance Kinase Activity Assay, HER2 INS YVMA (Her2 Exon 20 INSYVMA Lance); type: biochemical; conditions: biochemical Lance assay
T1 construct: purchased DPF
Outline: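 IC50 was fitted to sigmoidal curves of TR-FRET signal (665 and 615 nm emission after 340 nm excitation) from an Eu anti-phospho antibody binding the phosphorylated ULight peptide. The ATP-started reaction ran 1 h at RT and was then quenched with 10 mM EDTA plus antibody for a further 1 h. Compounds were tested as 8-point, 3-fold dilutions.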

[3] = molecular target: Her2 Exon 20 INSYVMA Ba/F3 (Homo sapiens, UniProt P04626, DUP772-775, cells depend on it); experiment: Her2 Exon 20 INSYVMA Ba/F3 CellTiter-Glo; type: cell-based; conditions: CellTiter-Glo, 72 h, read-out: Her2 Exon 20 INSYVMA Ba/F3 CTG IC50
Outline: as §2

H1975 = H1975 CellTiter-Glo; type: cell-based; conditions: Homo sapiens, NCI-H1975; 72 h compound incubation; read-out: H1975 CTG IC50
Outline: (§3)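 In this viability format, compound-treated cells sit 72 h at 37° C. before ATP content is quantified by luminescence, and IC50 is taken from the fitted dose-response curve.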

A431 = A431 CellTiter-Glo; type: cell-based; conditions: Homo sapiens, A-431; 72 h compound incubation; read-out: A431 CTG IC50
Outline: as §3

EGFR Exon 20 INSNPH Ba/F3, sequence (P00533 with tags, fused parts or gaps DUP771-773): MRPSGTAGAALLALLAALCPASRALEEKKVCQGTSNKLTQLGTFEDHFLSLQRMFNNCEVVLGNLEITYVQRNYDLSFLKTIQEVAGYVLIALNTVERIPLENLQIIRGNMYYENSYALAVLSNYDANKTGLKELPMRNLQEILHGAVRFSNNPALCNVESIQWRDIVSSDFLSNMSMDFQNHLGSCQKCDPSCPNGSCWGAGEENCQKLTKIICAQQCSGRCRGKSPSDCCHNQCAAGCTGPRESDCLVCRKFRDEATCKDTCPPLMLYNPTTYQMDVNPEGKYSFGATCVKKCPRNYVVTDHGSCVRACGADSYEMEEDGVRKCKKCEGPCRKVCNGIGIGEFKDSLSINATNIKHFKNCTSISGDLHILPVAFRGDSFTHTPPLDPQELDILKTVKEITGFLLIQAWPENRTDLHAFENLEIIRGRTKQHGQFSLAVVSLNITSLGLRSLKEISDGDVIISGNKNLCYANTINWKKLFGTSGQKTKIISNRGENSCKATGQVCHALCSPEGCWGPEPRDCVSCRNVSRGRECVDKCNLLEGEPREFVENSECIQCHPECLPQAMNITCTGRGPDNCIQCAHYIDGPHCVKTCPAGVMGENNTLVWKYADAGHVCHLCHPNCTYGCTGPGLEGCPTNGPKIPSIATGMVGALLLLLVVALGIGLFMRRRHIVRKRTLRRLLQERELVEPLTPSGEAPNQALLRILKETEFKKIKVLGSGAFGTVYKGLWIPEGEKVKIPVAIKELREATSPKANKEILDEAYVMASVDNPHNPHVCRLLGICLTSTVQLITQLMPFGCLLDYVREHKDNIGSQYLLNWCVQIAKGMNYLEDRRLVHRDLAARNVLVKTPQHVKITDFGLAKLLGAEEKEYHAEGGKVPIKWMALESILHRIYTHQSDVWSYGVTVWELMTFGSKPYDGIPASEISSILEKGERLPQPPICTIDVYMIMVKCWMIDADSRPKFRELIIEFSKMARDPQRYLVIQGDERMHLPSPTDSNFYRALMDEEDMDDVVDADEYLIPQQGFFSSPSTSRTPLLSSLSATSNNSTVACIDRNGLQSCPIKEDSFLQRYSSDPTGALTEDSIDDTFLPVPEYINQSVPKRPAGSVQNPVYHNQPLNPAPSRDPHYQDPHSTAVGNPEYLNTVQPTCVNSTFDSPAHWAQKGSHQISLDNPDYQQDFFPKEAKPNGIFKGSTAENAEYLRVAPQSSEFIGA
T1 sequence (P04626 with tags, fused parts or gaps INS775YVMA): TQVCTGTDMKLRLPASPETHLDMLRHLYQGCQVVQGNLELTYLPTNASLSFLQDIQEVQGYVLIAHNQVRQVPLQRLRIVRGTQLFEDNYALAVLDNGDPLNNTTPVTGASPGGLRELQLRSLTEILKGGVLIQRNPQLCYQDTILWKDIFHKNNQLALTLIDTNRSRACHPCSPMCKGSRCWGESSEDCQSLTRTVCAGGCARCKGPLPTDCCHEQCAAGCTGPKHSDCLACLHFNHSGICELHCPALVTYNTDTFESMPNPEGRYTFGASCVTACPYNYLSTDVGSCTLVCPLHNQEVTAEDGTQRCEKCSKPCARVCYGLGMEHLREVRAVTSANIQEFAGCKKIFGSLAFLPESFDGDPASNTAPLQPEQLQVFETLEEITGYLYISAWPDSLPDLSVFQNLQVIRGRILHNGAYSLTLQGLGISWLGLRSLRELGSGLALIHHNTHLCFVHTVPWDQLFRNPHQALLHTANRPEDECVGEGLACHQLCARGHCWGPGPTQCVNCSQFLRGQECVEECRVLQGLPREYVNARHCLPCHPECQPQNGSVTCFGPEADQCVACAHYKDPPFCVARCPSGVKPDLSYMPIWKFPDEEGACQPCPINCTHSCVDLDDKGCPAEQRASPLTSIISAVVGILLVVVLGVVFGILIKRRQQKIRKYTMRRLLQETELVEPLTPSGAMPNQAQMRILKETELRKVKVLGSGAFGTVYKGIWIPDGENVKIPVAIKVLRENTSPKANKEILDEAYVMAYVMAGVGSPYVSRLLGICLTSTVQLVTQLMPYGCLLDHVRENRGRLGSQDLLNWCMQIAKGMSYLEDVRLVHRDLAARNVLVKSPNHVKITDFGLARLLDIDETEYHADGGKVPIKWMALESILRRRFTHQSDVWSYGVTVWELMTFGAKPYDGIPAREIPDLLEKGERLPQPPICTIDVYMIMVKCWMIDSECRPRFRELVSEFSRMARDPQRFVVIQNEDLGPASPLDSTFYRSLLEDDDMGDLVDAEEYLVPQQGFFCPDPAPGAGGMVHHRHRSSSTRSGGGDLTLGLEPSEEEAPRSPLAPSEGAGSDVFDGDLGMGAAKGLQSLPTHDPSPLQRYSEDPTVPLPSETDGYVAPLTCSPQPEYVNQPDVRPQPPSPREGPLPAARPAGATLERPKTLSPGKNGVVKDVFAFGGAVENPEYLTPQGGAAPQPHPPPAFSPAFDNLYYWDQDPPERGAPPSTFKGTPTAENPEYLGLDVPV
Her2 Exon 20 INSYVMA Ba/F3, sequence (P04626 with tags, fused parts or gaps DUP772-775): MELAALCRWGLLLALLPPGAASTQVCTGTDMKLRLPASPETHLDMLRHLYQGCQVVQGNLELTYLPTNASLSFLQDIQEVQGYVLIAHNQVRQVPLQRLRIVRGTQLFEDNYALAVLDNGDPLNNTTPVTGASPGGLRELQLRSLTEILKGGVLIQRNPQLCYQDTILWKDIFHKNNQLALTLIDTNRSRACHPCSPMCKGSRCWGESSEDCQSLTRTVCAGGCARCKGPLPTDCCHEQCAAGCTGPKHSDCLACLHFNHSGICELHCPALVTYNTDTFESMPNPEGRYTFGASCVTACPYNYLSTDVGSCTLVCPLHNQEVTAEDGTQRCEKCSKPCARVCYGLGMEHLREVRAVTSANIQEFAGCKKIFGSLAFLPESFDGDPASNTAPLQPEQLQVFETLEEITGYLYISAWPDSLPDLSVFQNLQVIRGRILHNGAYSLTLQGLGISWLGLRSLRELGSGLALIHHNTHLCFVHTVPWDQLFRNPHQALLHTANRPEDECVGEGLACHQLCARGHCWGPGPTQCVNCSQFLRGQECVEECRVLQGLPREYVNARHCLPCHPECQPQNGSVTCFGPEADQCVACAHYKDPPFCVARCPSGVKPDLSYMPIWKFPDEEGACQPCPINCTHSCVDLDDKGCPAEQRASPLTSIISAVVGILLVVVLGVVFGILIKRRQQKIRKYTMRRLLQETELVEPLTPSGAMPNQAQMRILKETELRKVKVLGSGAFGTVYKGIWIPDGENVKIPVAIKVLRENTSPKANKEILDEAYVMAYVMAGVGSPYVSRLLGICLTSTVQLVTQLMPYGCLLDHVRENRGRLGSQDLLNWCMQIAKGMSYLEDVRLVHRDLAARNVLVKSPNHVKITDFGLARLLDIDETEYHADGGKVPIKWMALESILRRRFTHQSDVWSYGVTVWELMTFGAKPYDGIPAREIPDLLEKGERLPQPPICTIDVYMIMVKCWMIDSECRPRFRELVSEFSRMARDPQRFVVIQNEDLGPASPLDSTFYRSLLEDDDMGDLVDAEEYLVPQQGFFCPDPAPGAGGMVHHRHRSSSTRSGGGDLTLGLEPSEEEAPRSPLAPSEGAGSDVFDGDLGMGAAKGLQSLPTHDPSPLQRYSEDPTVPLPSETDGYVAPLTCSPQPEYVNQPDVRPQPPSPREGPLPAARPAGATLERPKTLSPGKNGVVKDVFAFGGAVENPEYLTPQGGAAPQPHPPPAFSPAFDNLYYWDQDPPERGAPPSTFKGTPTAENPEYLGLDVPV
EGFR T790ML858R, sequence (P00533 25-1210 T790M/L858R): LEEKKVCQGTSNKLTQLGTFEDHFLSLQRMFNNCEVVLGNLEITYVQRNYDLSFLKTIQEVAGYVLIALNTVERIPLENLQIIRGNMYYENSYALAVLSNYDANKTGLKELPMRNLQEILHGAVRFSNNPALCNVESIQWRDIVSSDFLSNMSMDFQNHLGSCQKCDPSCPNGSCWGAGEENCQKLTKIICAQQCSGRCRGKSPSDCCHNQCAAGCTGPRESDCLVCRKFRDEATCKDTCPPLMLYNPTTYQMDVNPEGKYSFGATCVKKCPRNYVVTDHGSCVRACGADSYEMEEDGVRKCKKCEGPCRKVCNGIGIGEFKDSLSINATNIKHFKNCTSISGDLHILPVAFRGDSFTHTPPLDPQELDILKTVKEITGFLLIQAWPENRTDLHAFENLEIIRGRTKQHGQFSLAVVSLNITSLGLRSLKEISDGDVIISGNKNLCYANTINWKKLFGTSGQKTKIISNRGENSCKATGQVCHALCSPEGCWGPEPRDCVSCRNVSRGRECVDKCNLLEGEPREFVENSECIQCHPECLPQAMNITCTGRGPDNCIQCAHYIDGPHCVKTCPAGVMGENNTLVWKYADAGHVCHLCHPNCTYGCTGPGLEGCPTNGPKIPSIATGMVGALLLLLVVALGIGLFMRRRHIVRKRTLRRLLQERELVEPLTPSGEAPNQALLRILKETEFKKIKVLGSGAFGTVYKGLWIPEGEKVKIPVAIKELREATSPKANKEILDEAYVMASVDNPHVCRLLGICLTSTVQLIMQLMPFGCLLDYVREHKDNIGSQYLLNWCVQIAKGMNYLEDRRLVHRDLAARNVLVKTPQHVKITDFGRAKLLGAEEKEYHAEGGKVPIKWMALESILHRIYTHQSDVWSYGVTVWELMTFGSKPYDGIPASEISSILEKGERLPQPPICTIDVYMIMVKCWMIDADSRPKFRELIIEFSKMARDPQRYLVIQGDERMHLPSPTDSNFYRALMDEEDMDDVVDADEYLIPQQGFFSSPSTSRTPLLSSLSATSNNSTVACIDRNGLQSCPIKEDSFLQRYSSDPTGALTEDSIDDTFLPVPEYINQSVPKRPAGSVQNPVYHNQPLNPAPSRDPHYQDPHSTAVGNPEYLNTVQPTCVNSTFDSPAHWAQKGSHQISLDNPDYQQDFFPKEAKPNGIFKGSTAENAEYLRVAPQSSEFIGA

Row | SMILES | Stability in presence of mouse liver microsomes without cofactor NADPH [% remaining after 50 min] [1] | IC50 (EGFR wt) | GI50 [2] | IC50 (EGFR T790ML858R) | IC50 (HER2 INS YVMA) | GI50 [3] | IC50 (H1975) | major metabolite observed ([1]; mouse liver microsomes with and without the cofactor NADPH) | IC50 (A431)
1 | C=CC(=O)Nc1cc(-c2c(-c3cccc(CN4CCN(C(C)=O)CC4)c3)[nH]c3nccc(Cl)c23)ccc1C [Example 22, N-(5-(2-(3-((4-acetylpiperazin-1-yl)methyl)phenyl)-4-chloro-1H-pyrrolo[2,3-b]pyridin-3-yl)-2-methylphenyl)acrylamide] | >99 % remaining after 50 min | 100 to 500 nM | 1000 to 10000 nM | ≤ 100 nM | 100 to 500 nM | 500 to 1000 nM | 100 to 500 nM |  | 
2 | C=CC(=O)Nc1cc(-c2c(-c3ccc(N4CCN(C)CC4)cc3OC)[nH]c3nccc(Cl)c23)ccc1C [Example 21, N-(5-(4-chloro-2-(2-methoxy-4-(4-methylpiperazin-1-yl)phenyl)-1H-pyrrolo[2,3-b]pyridin-3-yl)-2-methylphenyl)acrylamide] | 93 % remaining after 50 min | ≤ 100 nM | 500 to 1000 nM | ≤ 100 nM | 100 to 500 nM | 500 to 1000 nM | ≤ 100 nM |  | 
3 | C=CC(=O)Nc1cc(OC)cc(-c2c(-c3ccc(N4CCN(C)CC4)cc3)[nH]c3ncccc23)c1 [Reference 2, reference compound] | 48 % remaining after 50 min |  |  |  |  |  |  |  | 
4 | C=CC(=O)Nc1cc(-c2c(-c3cccc(C(=O)N4CCOCC4)c3)[nH]c3nccc(Cl)c23)ccc1C [Example 27, N-(5-(4-chloro-2-(3-(morpholine-4-carbonyl)phenyl)-1H-pyrrolo[2,3-b]pyridin-3-yl)-2-methylphenyl)acrylamide] | >99 % remaining after 50 min | 100 to 500 nM | 1000 to 10000 nM | ≤ 100 nM | 500 to 1000 nM | 1000 to 10000 nM | 100 to 500 nM |  | 
5 | C=CC(=O)Nc1cc(-c2c(-c3ccc(NC(C)=O)cc3)[nH]c3nccc(Cl)c23)ccc1C [Example 14, N-(5-(2-(4-acetamidophenyl)-4-chloro-1H-pyrrolo[2,3-b]pyridin-3-yl)-2-methylphenyl)acrylamide] | 68 % remaining after 50 min | ≤ 100 nM | 500 to 1000 nM | ≤ 100 nM | 100 to 500 nM | 500 to 1000 nM | 100 to 500 nM |  | 
6 | C=CC(=O)Nc1cc(-c2c(-c3cncnc3)[nH]c3nccc(Cl)c23)ccc1C [Example 24, N-(5-(4-chloro-2-(pyrimidin-5-yl)-1H-pyrrolo[2,3-b]pyridin-3-yl)-2-methylphenyl)acrylamide] | >99 % remaining after 50 min | 100 to 500 nM | 500 to 1000 nM | ≤ 100 nM | 100 to 500 nM | 500 to 1000 nM | 100 to 500 nM |  | 
7 | C=CC(=O)Nc1cc(-c2c(-c3ccc(N4CCN(C)CC4)cc3)[nH]c3ncc(C(=O)OC(C)C)cc23)ccc1C [Example 117, isopropyl 3-(3-acrylamido-4-methylphenyl)-2-(4-(4-methylpiperazin-1-yl)phenyl)-1H-pyrrolo[2,3-b]pyridine-5-carboxylate 2,2,2-trifluoroacetate] | 100 % remaining after 50 min |  |  |  |  |  |  |  | 
8 | C=CC(=O)Nc1cc(-c2c(-c3ccc(C(=O)N4CCN(C)CC4)cc3)[nH]c3nccc(Cl)c23)ccc1C [Example 9, N-(5-(4-chloro-2-(4-(4-methylpiperazine-1-carbonyl)phenyl)-1H-pyrrolo[2,3-b]pyridin-3-yl)-2-methylphenyl)acrylamide] | >99 % remaining after 50 min | ≤ 100 nM | 100 to 500 nM | ≤ 100 nM | ≤ 100 nM | 100 to 500 nM | ≤ 100 nM |  | 
9 | C=CC(=O)Nc1cccc(-c2c(-c3ccc(C4CCN(C)CC4)cc3)[nH]c3ncccc23)c1 [Reference 1, reference compound] | 33 % remaining after 50 min |  |  |  |  |  |  | hydrolysis of the acrylamide moiety | 
10 | C=CC(=O)N1CCCc2ccc(-c3c(-c4cccc(OCCN5CCCC5)c4)[nH]c4nccc(Cl)c34)cc21 [Example 94, 1-(7-(4-chloro-2-(3-(2-(pyrrolidin-1-yl)ethoxy)phenyl)-1H-pyrrolo[2,3-b]pyridin-3-yl)-3,4-dihydroquinolin-1(2H)-yl)prop-2-en-1-one] |  | ≤ 100 nM | 1000 to 10000 nM | ≤ 100 nM | ≤ 100 nM | 1000 to 10000 nM | 100 to 500 nM |  | 1000 to 100000 nM
11 | C=CC(=O)Nc1cc(-c2c(-c3ccc(C4CCN(C)CC4)cc3)[nH]c3nccc(Cl)c23)cc(C)c1C [Example 152, N-(5-(4-chloro-2-(4-(1-methylpiperidin-4-yl)phenyl)-1H-pyrrolo[2,3-b]pyridin-3-yl)-2,3-dimethylphenyl)acrylamide] |  | ≤ 100 nM | 100 to 500 nM | ≤ 100 nM | ≤ 100 nM | 100 to 500 nM | ≤ 100 nM |  | 500 to 1000 nM
12 | C=CC(=O)N1CCc2ccc(-c3c(-c4ccc(OCCN5CCCC5)cc4)[nH]c4nccc(OCC)c34)cc21 [Example 107, 1-(6-(4-ethoxy-2-(4-(2-(pyrrolidin-1-yl)ethoxy)phenyl)-1H-pyrrolo[2,3-b]pyridin-3-yl)indolin-1-yl)prop-2-en-1-one] |  | ≤ 100 nM | 100 to 500 nM | ≤ 100 nM | ≤ 100 nM | 100 to 500 nM | ≤ 100 nM |  | 500 to 1000 nM
13 | C=CC(=O)N1CCc2ccc(-c3c(-c4ccc(N5CCN(C)CC5)cc4)[nH]c4ncc(C(=O)OC(C)C)cc34)cc21 [Example 192, isoproyl 3-(1-acryloylindolin-6-yl)-2-(4-(4-methylpiperazin-1-yl)phenyl)-1H-pyrrolo[2,3-b]pyridine-5-carboxylate 2,2,2-trifluoroacetate] |  | ≤ 100 nM | 500 to 1000 nM | ≤ 100 nM | ≤ 100 nM | 100 to 500 nM | 1000 to 100000 nM |  | 1000 to 100000 nM
14 | C=CC(=O)Nc1cc(-c2c(-c3ccc(N4CCN(C)CC4)cc3)[nH]c3ncc(C(=O)OC4CCCCC4)cc23)ccc1C [Example 137, cyclohexyl 3-(3-acrylamido-4-methylphenyl)-2-(4-(4-methylpiperazin-1-yl)phenyl)-1H-pyrrolo[2,3-b]pyridine-5-carboxylate] |  | ≤ 100 nM | 500 to 1000 nM | ≤ 100 nM | 100 to 500 nM | 500 to 1000 nM | 100 to 500 nM |  | 1000 to 100000 nM
15 | C=CC(=O)Nc1cc(-c2c(-c3cnc(N4CCN(C)CC4)nc3)[nH]c3ncc(C(=O)OC(C)C)cc23)ccc1C [Example 175, isopropyl 3-(3-acrylamido-4-methylphenyl)-2-(2-(4-methylpiperazin-1-yl)pyrimidin-5-yl)-1H-pyrrolo[2,3-b]pyridine-5-carboxylate] |  | ≤ 100 nM | 1000 to 10000 nM | 100 to 500 nM | 100 to 500 nM | 1000 to 10000 nM | 1000 to 100000 nM |  | 1000 to 100000 nM
16 | C=CS(=O)(=O)Nc1cc(-c2c(-c3ccc(N4CCN(C)CC4)cc3)[nH]c3nccc(Cl)c23)ccc1C [Example 145, N-(5-(4-chloro-2-(4-(4-methylpiperazin-1-yl)phenyl)-1H-pyrrolo[2,3-b]pyridin-3-yl)-2-methylphenyl)ethenesulfonamide 2,2,2-trifluoroacetate] |  | ≤ 100 nM | 500 to 1000 nM | ≤ 100 nM | ≤ 100 nM | 500 to 1000 nM | 100 to 500 nM |  | 1000 to 100000 nM
